From patent US11591368B2, “Peptides for cancer treatment” (CHUNG SHAN MEDICAL UNIVERSITY, priority 2017, dated 2023)
Where a SMILES comes first, the peptide text is derived from it. Where no end group is shown, it is not given here. The star is where a group is joined. Fmoc = O=C(OCC1c2ccccc2-c2ccccc21)*

How the values were obtained:
CL1-5 lung cancer cells = test: Tumor growth in xenograft animal model; type: in vivo
Protocol: Six-week old immune deficient BALB/CAnN.Cg-Foxn1nu/CrlBltw mice were housed in individual ventilated chambers (IVC). A total of 2×10^6 CL1-5 lung cancer cells in 100 μL PBS were mixed with 100 μL of 10× Matrigel. The lung cancer cells/Matrigel mix was injected subcutaneously to the lower back of the mice. Three days later, the mice were treated with 0, 10, 20, or 30 nmol of Fmoc-LT-1-3 subcutaneously everyday. The Fmoc-LT-1-3 peptide was dissolved in 100% DMSO and diluted to the desired concentration in PBS from day 3 to day 17. On the 18th day, we observed that 80% of control group animal, 40% of 10 nmol group animal, 20% of 20 nmol group animal, and 40% of 30 nmol group animal developed tumor. Percent of tumor free animal increased with increasing level of Fmoc-LT1-3 between 10 nmol and 20 nmol. […] This phenomenon may be due to lower solubility of Fmoc-LT1-3 at higher concentration. We thus decided to replace the solvent from DMSO with γ-CD, and diluted the peptide to the desired concentration for injection on the 18th day and thereafter. The volume of tumor was measured periodically. […] On the 39th day, animals were sacrificed. The tumor and organs were weighted, fixed and embedded in paraffin. Embedded tissue were sectioned and stained with hematoxylin-eosin for histologic analysis.

CL1-5 cells [1] = type: in vivo, mice
Protocol: CL1-5 cells were washed, detached, and resuspended in PBS. Subsequently, a single-cell suspension containing 2×10^6 cell in 80 μL PBS was mixed with 20 μL 10× Matrigel (Corning, 5117012). The cell suspension was subcutaneously injected into the upper back of the immune deficient BALB/CAnN.Cg-Foxn1nu/CrlBltw mice. […] The tumor-bearing mice were divided into five groups (n=8/group). […] On day 13, the mice in the Fmoc-LT1-3 group were subcutaneously injected with 20 nmol Fmoc-LT1-3/γ-CD in the lower back daily. […] During the course of each treatment, the tumor volume was measured every 3 days. The mortality rates of mice were recorded, which included mice with tumor volume over 1500 mm^3. The percent of survival rate is recorded in FIG. 11 and the median survival of each group is calculated in Table 1.

CL1-5 cells [2] = test: Cell proliferation assay in CL1-5 cells; type: cell-based; conditions: for growth inhibition (cell proliferation): Fmoc modified peptides, 24 h, FIG. 1 and FIG. 2; for Growth inhibition: LT fragments at 0, 12.5, 25 and 50 μM
Protocol: The peptides described below were Fmoc modified and dissolved in DMSO and […] and then used in cell proliferation assay. CL1-5 cells were cultured to 80% confluence in RPMI medium containing 10% FBS. After detachment, 3×10^4[…]cells were seeded onto 12-well plates. After 16 h of incubation, cells were either harvested before treatment (designated as 0 h), or treated with LT peptides for 24 h (designated 24 h), and viable cells were counted. Relative fold-change in cell number or percent increase in cell growth (%) was calculated by following formula: (Cell number24h−Cell number0h)/(Cell number of control24h−Cell number of control0h).

CL1-5 cells [3] = test: Cell invasion assay (Matrigel-coated modified Boyden chamber) in CL1-5 cells; type: cell-based; conditions: for Invasion inhibition: LT fragments at 0, 12.5, 25 and 50 μM, FIG. 12
Protocol: Fmoc-LT1-3 peptides were used in cell invasion assay. A 24-well modified Boyden chamber with a polycarbonate membrane (8-μm pore size) was used for in vitro invasion assays. […] CL1-5 cells (3×10^4 cells/well) in RPMI medium with various concentrations of peptide were seeded onto the upper chamber. […] After 24 h of incubation, the cells were fixed with ice-cold 100% methanol and stained with 10% Giemsa. Following staining, cells on the upper side of the membrane were removed with a cotton swab. The number of invaded cells attached to the lower surface of the polycarbonate membranes was counted under a light microscope. All experiments were performed in triplicate.

H1355 = test: Cell proliferation assay in H1355 lung cancer cell line; type: cell-based; conditions: H1355, FIG. 4
A549 = test: Cell proliferation assay in A549 lung cancer cell line; type: cell-based; conditions: A549, FIG. 4
H1299 = test: Cell proliferation assay in H1299 lung cancer cell line; type: cell-based; conditions: H1299, FIG. 4
H460 = test: Cell proliferation assay in H460 lung cancer cell line; type: cell-based; conditions: H460, FIG. 4

CC[C@H](C)[C@H](NC(=O)[C@H](Cc1c[nH]cn1)NC(=O)[C@H](Cc1ccccc1)NC(=O)OCC1c2ccccc2-c2ccccc21)C(=O)N[C@H](C(=O)N[C@@H](CCC(=O)O)C(=O)N[C@@H](CC(C)C)C(=O)N[C@@H](CC(C)C)C(=O)N[C@@H](C)C(=O)O)C(C)C [Fmoc-LT1-3] (Fmoc-FHIVELLA-OH; N-terminus and C-terminus assumed)
histologic analysis, toxicity (CL1-5 lung cancer cells; hematoxylin-eosin stained tissue, day 39): did not reveal obvious toxicity | relative weight of organs (CL1-5 lung cancer cells; treatment groups vs control group, day 39, FIG. 9): no significant differences | effect on cisplatin-induced toxicity (CL1-5 cells [1]; combination treatment with cisplatin vs cisplatin only group): alleviate cisplatin-induced toxicity

O=S(=O)(NCCNC/C=C/c1ccc(Br)cc1)c1cccc2cnccc12 [H89, reference compound]
LT-peptide-mediated growth inhibition together with PKA inhibitor (H89) (CL1-5 cells [2]; CL1-5 cells, FIG. 24): enhances growth inhibition activity

N.N.[Cl][Pt][Cl] [cisplatin, reference compound]
Median survival (CL1-5 cells [1]; single agent: cisplatin 4 mg/kg IP weekly 4 times, or 20 nmol Fmoc-LT1-3/γ-CD s.c. daily): 37.5 days

AHIVELLA (Fmoc-AHIVELLA) [LT-A1, Fmoc modified in the proliferation assay]
growth inhibition (cell proliferation) (CL1-5 cells [2]; CL1-5 cells): better inhibition activity than F-moc-LT1-3 peptide

ASAIYSVETINDGNFHIVELLA [LT-1]
Invasion inhibition (CL1-5 cells [3]): inhibitory effect and Yes | Growth inhibition (CL1-5 cells [2]; CL1-5 cells): inhibitory effect and Yes

FAIVELLA (Fmoc-FAIVELLA) [LT-A2, Fmoc modified in the proliferation assay]
growth inhibition (cell proliferation) (CL1-5 cells [2]; CL1-5 cells): better inhibition activity than F-moc-LT1-3 peptide

FHIAELLA (Fmoc-FHIAELLA) [LT-A4, Fmoc modified in the proliferation assay]
growth inhibition (cell proliferation) (CL1-5 cells [2]; CL1-5 cells): better inhibition activity than F-moc-LT1-3 peptide

FHIVEALA (Fmoc-FHIVEALA) [LT-A6, Fmoc modified in the proliferation assay]
growth inhibition (cell proliferation) (CL1-5 cells [2]; CL1-5 cells): better inhibition activity than F-moc-LT1-3 peptide

FHIVELAA (Fmoc-FHIVELAA) [LT-A7, Fmoc modified in the proliferation assay]
growth inhibition (cell proliferation) (CL1-5 cells [2]; CL1-5 cells): better inhibition activity than F-moc-LT1-3 peptide

Fmoc-LT-A3: Fmoc binds to N terminal of FHAVELLA (SEQ ID NO:10) (Fmoc-FHAVELLA)
growth inhibition in lung cancer cell lines (H1355): greatly inhibited | cell invasion inhibition (CL1-5 cells [3]; Fmoc peptides, 24 h, FIG. 5): inhibited cell invasion | growth inhibition in lung cancer cell lines (A549): no effect | growth inhibition in lung cancer cell lines (H1299): partially inhibited | growth inhibition in lung cancer cell lines (H460): greatly inhibited | growth inhibition in lung cancer cell lines (CL1-5 cells [2]; CL1-5, FIG. 4): greatly inhibited | growth inhibition (cell proliferation) (CL1-5 cells [2]; CL1-5 cells): best growth inhibition capability | growth inhibition, dose effect experiment (CL1-5 cells [2]; Fmoc-LT-peptides, CL1-5 cells, FIG. 3): best growth inhibition capability

GGMPGKSNVASLRQAPGQNGTSF [LT-4]
Invasion inhibition (CL1-5 cells [3]): inhibitory effect on cell invasion only and Yes | Growth inhibition (CL1-5 cells [2]; CL1-5 cells): No

KIITNLSKQSTLNFDSPLYVGG [LT-3]
Invasion inhibition (CL1-5 cells [3]): inhibitory effect on cell invasion only and Yes | Growth inhibition (CL1-5 cells [2]; CL1-5 cells): No

LRQAPGQNGTSFHGCIRNLYINSE [LT-5]
Invasion inhibition (CL1-5 cells [3]): inhibitory effect on cell invasion only and Yes | Growth inhibition (CL1-5 cells [2]; CL1-5 cells): No
